Measurements as given in patent publication US8916567B2, “Certain crystalline hydrates, pharmaceutical compositions thereof and methods for preparation and use thereof” (Universal Technology Alliance, Inc., priority 2009, dated 2014).

Columns and labels:
[1] = Solubility in different solvents according to Chinese Pharmacopeia (2005 edition); format: physicochemical; settings: for Result: at the given solute:solvent ratio
Method: The solubility of the (S)—[N-3-(3′-fluoro-4′-(4″-phenylpiperazinyl))phenyl-2-oxo-5-oxazolelidinyl]methylacetamide hydrates was tested with different solvents, and the test results are shown in Tables 15-19. The solubility was measured according to Chinese Pharmacopeia (2005 edition).

S. epidermidis MSSE = assay: Minimum inhibitory concentration (MIC) in vitro, agar dilution method; format: cell-based; settings: hydrate
Summary of the method: (§1)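 MIC50, MIC90 and MIC range were compiled from per-strain MICs obtained by the agar dilution method recommended by CLSI/NCCLS, using clinically isolated strains from Sichuan and Beijing.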

[2] = system: Staphylococcus aureus MRSA; assay: as above; format: cell-based; settings: hydrate
Summary of the method: as §1

[3] = system: Staphylococcus aureus MSSA; assay: as above; format: cell-based; settings: hydrate
Summary of the method: as §1

S. epidermidis MRSE = assay: as above; format: cell-based; settings: hydrate
Summary of the method: as §1

E. feacium = assay: as above; format: cell-based; settings: hydrate
Summary of the method: as §1

E. feacalis = assay: as above; format: cell-based; settings: hydrate
Summary of the method: as §1

Staphylococcus aureus = assay: Minimum inhibitory concentration (MIC) in vitro, agar dilution method, quality control strain; format: cell-based; settings: strain S. AT C C25923 (Table 7 No. 1); hydrate
Summary of the method: as §1

[4] = S. ep MSSE (10 strains), clinically isolated
[5] = S. MRSA (10 strains), clinically isolated
[6] = S. MSSA (11 strains), clinically isolated
[7] = S. ep MRSE (10 strains), clinically isolated
[8] = E. feacium (5 strains), clinically isolated
[9] = E. feacalis (5 strains), clinically isolated

## CC(=O)NC[C@H]1CN(c2ccc(N3CCN(c4ccccc4)CC3)c(F)c2)C(=O)O1 [⅖ hydrate, (S)—[N-3-(3′-fluoro-4′-(4″-phenylpiperazinyl))phenyl-2-oxo-5-oxazolidinyl]methyl acetamide 2/5 hydrate]
[1]; different solvents
  Solubility compared with the anhydride: sometimes more soluble than the anhydride
[1]; solvent 0.1N Hydrochloric acid
  Result: Dissolved
[1]; solvent 0.1N Sodium hydroxide
  Result: Insoluble
[1]; solvent Acetonitrile
  Result: Dissolved
[1]; solvent Ethanol
  Result: Dissolved
[1]; solvent Methanol
  Result: Dissolved
[1]; solvent Water, hydrate
  Result: Dissolved
S. epidermidis MSSE; [4]
  MIC50: 0.5 µg/mL
  MIC90: 0.5 µg/mL
  MICrange: 0.125 to 0.5 µg/mL
S. epidermidis MSSE; strain S. ep MSSE87 (Table 7 No. 23)
  MIC: 0.125 µg/mL
S. epidermidis MSSE; strain S. ep MSSE88 (Table 8 No. 5)
  MIC: 0.5 µg/mL
S. epidermidis MSSE; strain S. ep MSSE113 (Table 7 No. 24)
  MIC: 0.5 µg/mL
S. epidermidis MSSE; strain S. ep MSSE116 (Table 7 No. 25)
  MIC: 0.5 µg/mL
S. epidermidis MSSE; strain S. ep MSSE118 (Table 8 No. 2)
  MIC: 0.5 µg/mL
S. epidermidis MSSE; strain S. ep MSSE119 (Table 7 No. 27)
  MIC: 0.125 µg/mL
S. epidermidis MSSE; strain S. ep MSSE137 (Table 8 No. 4)
  MIC: 0.5 µg/mL
S. epidermidis MSSE; strain S. ep MSSE140 (Table 8 No. 3)
  MIC: 0.5 µg/mL
S. epidermidis MSSE; strain S. ep MSSE142 (Table 7 No. 26)
  MIC: 0.25 µg/mL
S. epidermidis MSSE; strain S. ep MSSE153 (Table 8 No. 1)
  MIC: 0.5 µg/mL
[2]; [5]
  MIC50: 1 µg/mL
  MIC90: 0.5 µg/mL
  MICrange: 0.25 to 0.5 µg/mL
[2]; strain S. MRSA 29 (Table 7 No. 15)
  MIC: 0.5 µg/mL
[2]; strain S. MRSA 101 (Table 7 No. 14)
  MIC: 0.5 µg/mL
[2]; strain S. MRSA 201 (Table 7 No. 13)
  MIC: 0.5 µg/mL
[2]; strain S. MRSA B27 (Table 7 No. 21)
  MIC: 0.5 µg/mL
[2]; strain S. MRSA B105 (Table 7 No. 17)
  MIC: 0.5 µg/mL
[2]; strain S. MRSA B143 (Table 7 No. 19)
  MIC: 0.5 µg/mL
[2]; strain S. MRSA B151 (Table 7 No. 20)
  MIC: 0.25 µg/mL
[2]; strain S. MRSA B164 (Table 7 No. 16)
  MIC: 0.5 µg/mL
[2]; strain S. MRSA B199 (Table 7 No. 22)
  MIC: 0.5 µg/mL
[2]; strain S. MRSA B617 (Table 7 No. 18)
  MIC: 0.5 µg/mL
[3]; [6]
  MIC50: 0.5 µg/mL
  MIC90: 0.5 µg/mL
  MICrange: 0.5 to 1 µg/mL
[3]; strain S. MSSA 123 (Table 7 No. 3)
  MIC: 0.5 µg/mL
[3]; strain S. MSSA 187 (Table 7 No. 7)
  MIC: 0.5 µg/mL
[3]; strain S. MSSA 195 (Table 7 No. 6)
  MIC: 1 µg/mL
[3]; strain S. MSSA 195 (Table 7 No. 12)
  MIC: 0.5 µg/mL
[3]; strain S. MSSA 201 (Table 7 No. 11)
  MIC: 0.5 µg/mL
[3]; strain S. MSSA 232 (Table 7 No. 2)
  MIC: 0.5 µg/mL
[3]; strain S. MSSA 275 (Table 7 No. 10)
  MIC: 0.5 µg/mL
[3]; strain S. MSSA 466 (Table 7 No. 8)
  MIC: 0.5 µg/mL
[3]; strain S. MSSA 519 (Table 7 No. 9)
  MIC: 0.5 µg/mL
[3]; strain S. MSSA 520 (Table 7 No. 4)
  MIC: 0.5 µg/mL
[3]; strain S. MSSA 580 (Table 7 No. 5)
  MIC: 0.5 µg/mL
S. epidermidis MRSE; [7]
  MIC50: 0.5 µg/mL
  MIC90: 0.5 µg/mL
  MICrange: 0.125 to 0.5 µg/mL
S. epidermidis MRSE; strain S. ep MRSE4 (Table 8 No. 9)
  MIC: 0.5 µg/mL
S. epidermidis MRSE; strain S. ep MRSE20 (Table 8 No. 6)
  MIC: 0.5 µg/mL
S. epidermidis MRSE; strain S. ep MRSE87 (Table 8 No. 13)
  MIC: 0.5 µg/mL
S. epidermidis MRSE; strain S. ep MRSE90 (Table 8 No. 10)
  MIC: 0.5 µg/mL
S. epidermidis MRSE; strain S. ep MRSE101 (Table 8 No. 7)
  MIC: 0.125 µg/mL
S. epidermidis MRSE; strain S. ep MRSE105 (Table 8 No. 11)
  MIC: 0.5 µg/mL
S. epidermidis MRSE; strain S. ep MRSE140 (Table 8 No. 14)
  MIC: 0.5 µg/mL
S. epidermidis MRSE; strain S. ep MRSE142 (Table 8 No. 12)
  MIC: 0.5 µg/mL
S. epidermidis MRSE; strain S. ep MRSE210 (Table 8 No. 15)
  MIC: 0.5 µg/mL
S. epidermidis MRSE; strain S. ep MRSE211 (Table 8 No. 8)
  MIC: 0.5 µg/mL
E. feacium; [8]
  MIC50: 1 µg/mL
  MIC90: 1 µg/mL
  MICrange: 0.5 to 1 µg/mL
E. feacium; strain Efm 98 (Table 8 No. 21)
  MIC: 0.5 µg/mL
E. feacium; strain Efm 171 (Table 8 No. 25)
  MIC: 0.5 µg/mL
E. feacium; strain Efm 197 (Table 8 No. 22)
  MIC: 1 µg/mL
E. feacium; strain Efm N3 (Table 8 No. 23)
  MIC: 1 µg/mL
E. feacium; strain Efm N4 (Table 8 No. 24)
  MIC: 1 µg/mL
E. feacalis; [9]
  MIC50: 0.5 µg/mL
  MIC90: 0.5 µg/mL
  MICrange: 0.125 to 0.5 µg/mL
E. feacalis; strain Efa 116 (Table 8 No. 16)
  MIC: 0.5 µg/mL
E. feacalis; strain Efa 907 (Table 8 No. 19)
  MIC: 0.5 µg/mL
E. feacalis; strain Efa 3006 (Table 8 No. 18)
  MIC: 0.25 µg/mL
E. feacalis; strain Efa 33748 (Table 8 No. 17)
  MIC: 0.5 µg/mL
Staphylococcus aureus
  MIC: 0.5 µg/mL
